Results: US9834541B2, “2-aminopyridine compounds” (Merck Patent GmbH, priority 2012, dated 2017)

Tests used:
[1] = test system: Wnt pathway; test: Cellular assay for Wnt pathway activity, LS174T-shl-fLuc clone 5 (LS174T-L5) luciferase reporter assay; format: cell-based; conditions: Homo sapiens; LS174T TCF luciferase reporter cells, 24 hours incubation
Text: 1. Cellular Assay for Wnt Pathway Activity LS174T-shl-fLuc Clone 5 (LS174T-L5) Reporter Assay Principle:
This assay is based on an in-vitro luciferase activity readout. The human colon cancer cell line, LS174T was transduced with a lentivirus encoding a short half-life luciferase (with a destabilised PEST sequence construct; construct F1756): 16×TCF/LEF transcription sites—short half life firefly luciferase on a basal pTA promoter—puromycin resistance gene on an EF-1-α promoter). This construct was made using the lentiviral base vector: pCDF1-MCS2-EF1-Puro from System Biosciences (cat. # CD110B-1). The luciferase has a T1/2 of about 60 minutes.
Stable luciferase-expressing clones were selected, using 1 μg/mL puromycin selection and the clones were bulked up.
Compounds that inhibit the Wnt pathway are predicted to inhibit the induction of luciferase transcription by TCF; this will result in reduced luciferase protein production and luciferase signal readout.
Compounds were tested for their Wnt pathway inhibitory activities using the described firefly luciferase reporter cell based assay. An LS174T luciferase reporter cell line was used which contained a T-Cell Factor (TCF) dependent gene promoter firefly luciferase construct.
Compounds, in concentrations from 30 μM to 1 nM, were incubated for 24 hours on the cells. Luciferase activities were determined using the Steady Glo Luciferase Assay System (Promega) and the TOPCOUNT microplate reader (Perkin Elmer). For analysis, the obtained data were normalized against the untreated vehicle control and fitted for determination of the IC50 values using the Excel Fit application of the Excel Software (Microsoft).

[2] = CLint (intrinsic clearance) assay, liver microsomal incubation; format: in vitro ADME, human; conditions: liver microsomes, pH 7.4; human hepatic microsomes, 0.5 mg/mL protein, class symbols
Experimental: Also shown is the human hepatic microsomal intrinsic clearance (CLint), whereby the following classification is used:
2. CLint (Intrinsic Clearance) Assay
A Tecan Genesis workstation (RWS ASY 150/8) was used to perform the microsomal incubations. Analysis was carried out using a Waters ACQUITY UPLC system coupled to an ABSciex API3000 mass spectrometer. Data analysis was performed using Assay Explorer (Symyx).
Column: Acquity UPLC BEH C18, 2.1×50 mm, 1.7 um (Waters)
Mobile phases: • A=0.1% formic acid in water • B=acetonitrile
Column temperature: 50° C.
0.1 M potassium phosphate buffer pH 7.4 containing 1 mM MgCl2
15 mM NADPH in phosphate buffer
5.0 mg protein/mL liver microsomes in phosphate buffer
Each experiment consists of 12 test and 2 reference compounds. The reference compounds are incubated as a cocktail.
Dilution of test compounds was done in 2 steps from a 10 mM DMSO stock solution. First 4 μL stock solution was added to 196 μL of 20% DMSO in potassium phosphate buffer pH 7.4. In a second step 10 μL of the first dilution were added to 1890 μL potassium phosphate buffer and 100 μL internal standard solution to a final concentration of […].
100 μL of the final compound dilution were aliquoted into a 96 deep well plate. 12.5 μL liver microsomes were added to each well (0.5 mg/mL final protein concentration) and the samples preincubated for 5 min at 37° C. and 800 rpm agitation.
After the preincubation, 250 μL cold acetonitrile were added to the 0 min samples to prevent a reaction. Following this, 12.5 μL NADPH solution were added to all wells to start the incubation, with the exception of the 0 min and 30 min controls without cofactor, where the NADPH was substituted for phosphate buffer.
The incubations were stopped after 5, 10, 20 and 30 min by adding 250 μL cold acetonitrile to the individual wells.
The quenched samples were then centrifuged at 4000 g for 1 h at 4° C. 100 μL of the supernatant were transferred into 96 well plates for analysis.
The metabolic stability of each compound was determined by measurement of the change in LC-MS/MS peak area over time. Assay Explorer software was used to automatically calculate the slope k of the decline. The intrinsic clearance (CLint) of each compound was then calculated according to the formula: CLint(μL/min/mg protein)=k1000/protein concentration.

Structure (SMILES) | IC50 [1] [nM] | microsomal CLint at 0.8 μM [2] [µL/min/mg]
Cn1cc(-c2ccc(-c3cnc(N)c(C(F)(F)F)c3N3CCC4(CCNC4=O)CC3)cc2)cn1 [Compound 43, 8-{2-Amino-5-[4-(1-methyl-1H-pyrazol-4-yl)-phenyl]-3-trifluoromethyl-pyridin-4-yl}-2,8-diaza-spiro[4.5] decan-1-one] | 46 | 10 to 50
Nc1ncc(-c2ccc3c(N)n[nH]c3c2)c(N2CCC3(CCNC3=O)CC2)c1C(F)(F)F [Compound 44, 8-[2-Amino-5-(3-amino-1H-indazol-6-yl)-3-trifluoro-methyl-pyridin-4-yl]-2,8-diaza-spiro[4.5] decan-1-one] | 270 | 10 to 50
CN1c2ccc(-c3cnc(N)c(Cl)c3N3CCC4(CC3)NCCNC4=O)cc2CS1(=O)=O [Compound 46, 9-[2-Amino-3-chloro-5-(1-methyl-2,2-dioxo-2,3-dihydro-1H-2I6-benzo[c]isothiazol-5-yl)-pyridin-4-yl]-1,4,9-triaza-spiro[5.5] undecan-5-one] | 150 | 50 to 100
Cn1ncc2cc(-c3cnc(N)c(C(F)(F)F)c3N3CCC(C(N)=O)CC3)ccc21 [Compound 47, 2′-Amino-5′-(1-methyl-1H-indazol-5-yl)-3′-trifluoromethyl-3,4,5,6-tetrahydro-2H-[1,4′] bipyridinyl-4-carboxylic acid amide] | 110 | 50 to 100
Cn1ncc2cc(-c3cnc(N)c(C(F)(F)F)c3N3CCC4(CC3)CC(=O)NC4=O)ccc21 [Compound 49, 8-[2-Amino-5-(1-methyl-1H-indazol-5-yl)-3-trifluoromethyl-pyridin-4-yl]-2,8-diaza-spiro[4.5] decane-1,3-dione] | 4 | 10 to 50

Other lines, results leading:

IC50 [1] [nM] | microsomal CLint at 0.8 μM [2] [µL/min/mg] | Structure (SMILES)
817 | 10 to 50 | CN1C(=O)Cc2ccc(-c3cnc(N)c(C(F)(F)F)c3N3CCC4(CCNC4=O)CC3)cc21 [Compound 50, 8-[2-Amino-5-(1-methyl-2-oxo-2,3-dihydro-1H-indol-6-yl)-3-trifluoromethyl-pyridin-4-yl]-2,8-diaza-spiro[4.5] decan-1-one]
455 | 10 to 50 | CN1C(=O)Cc2cc(-c3cnc(N)c(C(F)(F)F)c3N3CCC4(CCNC4=O)CC3)ccc21 [Compound 51, 8-[2-Amino-5-(1-methyl-2-oxo-2,3-dihydro-1H-indol-5-yl)-3-trifluoromethyl-pyridin-4-yl]-2,8-diaza-spiro[4.5] decan-1-one]
1.2 | 10 to 50 | Cn1cc(-c2ccc(-c3cnc(N)c(C(F)(F)F)c3N3CCC4(CC3)CC(=O)NC4=O)cc2)cn1 [Compound 52, 8-{2-Amino-5-[4-(1-methyl-1H-pyrazol-4-yl)-phenyl]-3-trifluoromethyl-pyridin-4-yl}-2,8-diaza-spiro[4.5] decane-1,3-dione]
8.29 | 50 to 100 | CN1c2ccc(-c3cnc(N)c(C(F)(F)F)c3N3CCC4(CCNC4=O)CC3)cc2CS1(=O)=O [Compound 53, 8-[2-Amino-5-(1-methyl-2,2-dioxo-2,3-dihydro-1H-2I6-benzo[c]isothiazol-5-yl)-3-trifluoro-methyl-pyridin-4-yl]-2,8-diaza-spiro[4.5] decan-1-one]
88 | 10 to 50 | CC(C)n1cc(-c2ccc(-c3cnc(N)c(C(F)(F)F)c3N3CCC4(CC3)CNC(=O)O4)cc2)cn1 [Compound 54, 8-{2-Amino-5-[4-(1-isopropyl-1H-pyrazol-4-yl)-phenyl]-3-trifluoro-methyl-pyridin-4-yl}-1-oxa-3,8-diaza-spiro[4.5] decan-2-one]
170 | 10 to 50 | CC(C)n1cc(-c2ccc(-c3cnc(N)c(Cl)c3N3CCC4(CC3)CNC(=O)O4)cc2)cn1 [Compound 55, 8-{2-Amino-3-chloro-5-[4-(1-isopropyl-1H-pyrazol-4-yl)-phenyl]-pyridin-4-yl}-1-oxa-3,8-diaza-spiro[4.5] decan-2-one]
